Assay results: ChEMBL document CHEMBL3608278 (J Med Chem, 2015)
pIC50: −log10 of the molar value. Bridge positions count the residues as written; N and C are the ends. Square brackets hold non-standard residues; d marks the D form. Peptide text beside a SMILES is read from it. 1Nal = N[C@@H](Cc1cccc2ccccc12)C(=O)O

How the values were obtained:
[1] = Half life in rat; type: ADME, organism-based; details: in vivo
[2] = target: T1, Potassium voltage-gated channel subfamily A member 3 (Homo sapiens, UniProt P22001); type: cell-based, CHO-K1
T1 sequence (P22001 whole entry): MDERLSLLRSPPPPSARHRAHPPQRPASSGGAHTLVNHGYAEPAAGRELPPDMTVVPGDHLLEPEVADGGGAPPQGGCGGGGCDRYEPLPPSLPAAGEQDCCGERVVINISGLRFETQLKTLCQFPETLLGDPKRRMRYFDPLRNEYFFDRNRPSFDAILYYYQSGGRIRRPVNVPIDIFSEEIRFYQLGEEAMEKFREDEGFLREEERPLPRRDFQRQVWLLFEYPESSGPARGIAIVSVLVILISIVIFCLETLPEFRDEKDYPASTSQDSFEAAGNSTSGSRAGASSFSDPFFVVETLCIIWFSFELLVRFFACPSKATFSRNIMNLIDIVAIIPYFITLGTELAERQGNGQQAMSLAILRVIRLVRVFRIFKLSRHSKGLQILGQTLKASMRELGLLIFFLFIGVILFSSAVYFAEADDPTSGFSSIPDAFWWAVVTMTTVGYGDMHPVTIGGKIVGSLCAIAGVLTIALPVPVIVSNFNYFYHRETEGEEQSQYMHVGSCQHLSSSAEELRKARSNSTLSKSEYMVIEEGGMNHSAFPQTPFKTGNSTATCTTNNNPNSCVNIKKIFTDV

[3] = target: T1, Potassium voltage-gated channel subfamily A member 3; experiment: cell-based; design: species or system Blood
[4] = target: T1, Potassium voltage-gated channel subfamily A member 3; design: species or system Blood

| SMILES | half-life [1] | pIC50 [2] | pIC50 [3] | pIC50 [4] |
| --- | --- | --- | --- | --- |
| CC[C@H](C)[C@@H]1NC(=O)[C@@H](NC(=O)[C@H](CO)NC(=O)[C@@H](N)CCCNC(=N)N)CSSC[C@@H](C(=O)O)NC(=O)[C@H]([C@@H](C)O)NC(=O)CNC(=O)[C@@H]2CSSC[C@@H]3NC(=O)[C@H](CCC(N)=O)NC(=O)[C@H](Cc4ccccc4)NC(=O)[C@H](C)NC(=O)[C@H]([C@@H](C)O)NC(=O)[C@H](CSSC[C@H](NC(=O)[C@H](Cc4ccccc4)NC(=O)[C@H](CO)NC(=O)[C@H](CC(C)C)NC(=O)[C@H](CCCNC(=N)N)NC(=O)[C@H](Cc4ccc(O)cc4)NC(=O)[C@H](CCCCN)NC(=O)[C@H](CCSC)NC(=O)[C@H](CO)NC(=O)[C@H](Cc4cnc[nH]4)NC(=O)[C@H](CCCCN)NC3=O)C(=O)N[C@@H](CCCNC(=N)N)C(=O)N[C@@H](CCCCN)C(=O)N[C@@H]([C@@H](C)O)C(=O)N2)NC(=O)[C@H](CCCNC(=N)N)NC(=O)[C@H](CO)NC(=O)[C@H](CCCCN)NC(=O)[C@@H]2CCCN2C(=O)[C@H]([C@@H](C)CC)NC(=O)[C@H]([C@@H](C)O)NC(=O)[C@H](CC(=O)O)NC1=O | 20 min |  |  |  |
| CC[C@H](C)[C@@H]1NC(=O)[C@@H](NC(=O)[C@H](CO)NC(=O)[C@@H](N)CCCNC(=N)N)CSSC[C@@H](C(=O)O)NC(=O)[C@H]([C@@H](C)O)NC(=O)CNC(=O)[C@@H]2CSSC[C@@H]3NC(=O)[C@H](CCC(N)=O)NC(=O)[C@H](CCC(=O)O)NC(=O)[C@H](C)NC(=O)[C@H]([C@@H](C)O)NC(=O)[C@H](CSSC[C@H](NC(=O)[C@H](Cc4ccccc4)NC(=O)[C@H](CO)NC(=O)[C@H](CC(C)C)NC(=O)[C@H](CCCNC(=N)N)NC(=O)[C@H](Cc4ccc(O)cc4)NC(=O)[C@H](CCCCN)NC(=O)[C@H](CCSC)NC(=O)[C@H](CO)NC(=O)[C@H](C)NC(=O)[C@H](CCCCN)NC3=O)C(=O)N[C@@H](CCCNC(=N)N)C(=O)N[C@@H](CCCCN)C(=O)N[C@@H]([C@@H](C)O)C(=O)N2)NC(=O)[C@H](CCCNC(=N)N)NC(=O)[C@H](CO)NC(=O)[C@H](CCCCN)NC(=O)[C@@H]2CCCN2C(=O)[C@H]([C@@H](C)CC)NC(=O)[C@H]([C@@H](C)O)NC(=O)[C@H](CC(=O)O)NC1=O (H-RSCIDTIPKSRCTAEQCKASMKYRLSFCRKTCGTC-OH; disulfide 3-35, 12-28, 17-32) |  | 9.57 | 9.51 | 9.24 |
| CC[C@H](C)[C@@H]1NC(=O)[C@@H](NC(=O)[C@H](CO)NC(=O)[C@@H](N)CCCNC(=N)N)CSSC[C@@H](C(=O)O)NC(=O)[C@H]([C@@H](C)O)NC(=O)CNC(=O)[C@@H]2CSSC[C@@H]3NC(=O)[C@H](CCC(N)=O)NC(=O)[C@H](CCCCN)NC(=O)[C@H](C)NC(=O)[C@H]([C@@H](C)O)NC(=O)[C@H](CSSC[C@H](NC(=O)[C@H](Cc4ccccc4)NC(=O)[C@H](CO)NC(=O)[C@H](CC(C)C)NC(=O)[C@H](CCCNC(=N)N)NC(=O)[C@H](Cc4ccc(O)cc4)NC(=O)[C@H](CCCCN)NC(=O)[C@H](CCSC)NC(=O)[C@H](CO)NC(=O)[C@H](C)NC(=O)[C@H](CCCCN)NC3=O)C(=O)N[C@@H](CCCNC(=N)N)C(=O)N[C@@H](CCCCN)C(=O)N[C@@H]([C@@H](C)O)C(=O)N2)NC(=O)[C@H](CCCNC(=N)N)NC(=O)[C@H](CO)NC(=O)[C@H](CCCCN)NC(=O)[C@@H]2CCCN2C(=O)[C@H]([C@@H](C)CC)NC(=O)[C@H]([C@@H](C)O)NC(=O)[C@H](CC(=O)O)NC1=O (H-RSCIDTIPKSRCTAKQCKASMKYRLSFCRKTCGTC-OH; disulfide 3-35, 12-28, 17-32) |  | 9.53 | 9.33 | 9.00 |
| CC[C@H](C)[C@@H]1NC(=O)[C@@H](NC(=O)[C@H](CO)NC(=O)[C@@H](N)CCCNC(=N)N)CSSC[C@@H](C(=O)O)NC(=O)[C@H]([C@@H](C)O)NC(=O)CNC(=O)[C@@H]2CSSC[C@@H]3NC(=O)[C@H](CCC(N)=O)NC(=O)[C@H](Cc4cccc5ccccc45)NC(=O)[C@H](C)NC(=O)[C@H]([C@@H](C)O)NC(=O)[C@H](CSSC[C@H](NC(=O)[C@H](Cc4ccccc4)NC(=O)[C@H](CO)NC(=O)[C@H](CC(C)C)NC(=O)[C@H](CCCNC(=N)N)NC(=O)[C@H](Cc4ccc(O)cc4)NC(=O)[C@H](CCCCN)NC(=O)[C@H](CCSC)NC(=O)[C@H](CO)NC(=O)[C@H](C)NC(=O)[C@H](CCCCN)NC3=O)C(=O)N[C@@H](CCCNC(=N)N)C(=O)N[C@@H](CCCCN)C(=O)N[C@@H]([C@@H](C)O)C(=O)N2)NC(=O)[C@H](CCCNC(=N)N)NC(=O)[C@H](CO)NC(=O)[C@H](CCCCN)NC(=O)[C@@H]2CCCN2C(=O)[C@H]([C@@H](C)CC)NC(=O)[C@H]([C@@H](C)O)NC(=O)[C@H](CC(=O)O)NC1=O (H-RSCIDTIPKSRCTA[1Nal]QCKASMKYRLSFCRKTCGTC-OH; disulfide 3-35, 12-28, 17-32) |  | 10.14 | 9.74 | 9.54 |
| CC[C@H](C)[C@@H]1NC(=O)[C@@H](NC(=O)[C@H](CO)NC(=O)[C@@H](N)CCCNC(=N)N)CSSC[C@@H](C(=O)O)NC(=O)[C@H]([C@@H](C)O)NC(=O)CNC(=O)[C@@H]2CSSC[C@@H]3NC(=O)[C@H](CCC(N)=O)NC(=O)[C@H](Cc4ccccc4)NC(=O)[C@H](CCC(=O)O)NC(=O)[C@H]([C@@H](C)O)NC(=O)[C@H](CSSC[C@H](NC(=O)[C@H](Cc4ccccc4)NC(=O)[C@H](CO)NC(=O)[C@H](CC(C)C)NC(=O)[C@H](CCCNC(=N)N)NC(=O)[C@H](Cc4ccc(O)cc4)NC(=O)[C@H](CCCCN)NC(=O)[C@H](CCSC)NC(=O)[C@H](CO)NC(=O)[C@H](Cc4cnc[nH]4)NC(=O)[C@H](CCCCN)NC3=O)C(=O)N[C@@H](CCCNC(=N)N)C(=O)N[C@@H](CCCCN)C(=O)N[C@@H]([C@@H](C)O)C(=O)N2)NC(=O)[C@H](CCCNC(=N)N)NC(=O)[C@H](CO)NC(=O)[C@H](CCCCN)NC(=O)[C@@H]2CCCN2C(=O)[C@H]([C@@H](C)CC)NC(=O)[C@H]([C@@H](C)O)NC(=O)[C@H](Cc2cccc3ccccc23)NC1=O (H-RSCI[1Nal]TIPKSRCTEFQCKHSMKYRLSFCRKTCGTC-OH; disulfide 3-35, 12-28, 17-32) |  | 9.96 | 10.44 | 9.88 |
| CC[C@H](C)[C@@H]1NC(=O)[C@@H](NC(=O)[C@H](CO)NC(=O)[C@@H](N)CCCNC(=N)N)CSSC[C@@H](C(=O)O)NC(=O)[C@H]([C@@H](C)O)NC(=O)CNC(=O)[C@@H]2CSSC[C@@H]3NC(=O)[C@H](CCC(N)=O)NC(=O)[C@H](Cc4ccccc4)NC(=O)[C@H](CCCCN)NC(=O)[C@H]([C@@H](C)O)NC(=O)[C@H](CSSC[C@H](NC(=O)[C@H](Cc4ccccc4)NC(=O)[C@H](CO)NC(=O)[C@H](CC(C)C)NC(=O)[C@H](CCCNC(=N)N)NC(=O)[C@H](Cc4ccc(O)cc4)NC(=O)[C@H](CCCCN)NC(=O)[C@H](CCSC)NC(=O)[C@H](CO)NC(=O)[C@H](Cc4cnc[nH]4)NC(=O)[C@H](CCCCN)NC3=O)C(=O)N[C@@H](CCCNC(=N)N)C(=O)N[C@@H](CCCCN)C(=O)N[C@@H]([C@@H](C)O)C(=O)N2)NC(=O)[C@H](CCCNC(=N)N)NC(=O)[C@H](CO)NC(=O)[C@H](CCCCN)NC(=O)[C@@H]2CCCN2C(=O)[C@H]([C@@H](C)CC)NC(=O)[C@H]([C@@H](C)O)NC(=O)[C@H](Cc2cccc3ccccc23)NC1=O (H-RSCI[1Nal]TIPKSRCTKFQCKHSMKYRLSFCRKTCGTC-OH; disulfide 3-35, 12-28, 17-32) |  | 10.14 | 10.12 | 9.70 |
| CC[C@H](C)[C@@H]1NC(=O)[C@@H](NC(=O)[C@H](CO)NC(=O)[C@@H](N)CCCNC(=N)N)CSSC[C@@H](C(=O)O)NC(=O)[C@H]([C@@H](C)O)NC(=O)CNC(=O)[C@@H]2CSSC[C@@H]3NC(=O)[C@H](CCC(N)=O)NC(=O)[C@H](Cc4ccccc4)NC(=O)[C@H](Cc4cccc5ccccc45)NC(=O)[C@H]([C@@H](C)O)NC(=O)[C@H](CSSC[C@H](NC(=O)[C@H](Cc4ccccc4)NC(=O)[C@H](CO)NC(=O)[C@H](CC(C)C)NC(=O)[C@H](CCCNC(=N)N)NC(=O)[C@H](Cc4ccc(O)cc4)NC(=O)[C@H](CCCCN)NC(=O)[C@H](CCSC)NC(=O)[C@H](CO)NC(=O)[C@H](Cc4cnc[nH]4)NC(=O)[C@H](CCCCN)NC3=O)C(=O)N[C@@H](CCCNC(=N)N)C(=O)N[C@@H](CCCCN)C(=O)N[C@@H]([C@@H](C)O)C(=O)N2)NC(=O)[C@H](CCCNC(=N)N)NC(=O)[C@H](CO)NC(=O)[C@H](CCCCN)NC(=O)[C@@H]2CCCN2C(=O)[C@H]([C@@H](C)CC)NC(=O)[C@H]([C@@H](C)O)NC(=O)[C@H](Cc2cccc3ccccc23)NC1=O (H-RSCI[1Nal]TIPKSRCT[1Nal]FQCKHSMKYRLSFCRKTCGTC-OH; disulfide 3-35, 12-28, 17-32) |  | 10.41 | 10.05 | 9.96 |
